Experimental findings from patent US7718626B2, “ErbB3 binding protein compositions and methods of use” (University of Maryland, Baltimore, priority 2005, dated 2010) are described below.

One assay addresses Androgen Receptor (AR) (Homo sapiens, UniProt P10275, T878A). How it is done:
Luciferase Reporter Assays: Vector control or ebp1-transfected LNCaP (5×10^4) cells were plated in twelve-well plates in complete media. When cells reached 50-60% confluence, they were transfected with 0.5 μg of MMTV-luc using the Fugene-6 reagent (Roche). Cells were also transfected with the RL-TK vector as an internal control. […] Luciferase activity was determined as previously described using a Dual-Luciferase kit (Promega, Madison, Wis.). The activities of renilla luciferase were used to normalize any variations in transfection efficiency. The promoter activities of each plasmid construct were calculated as the firefly-renilla luciferase activity ratios. All transfection experiments were carried out in triplicate wells and repeated three times.

The next assay has as its system LNCaP cells. Description: Growth in steroid-reduced medium with DHT and/or bicalutamide. Format: cell-based, human. As to conditions: 10^−9 M DHT. On the procedure: Cell Growth Assays: To measure growth in complete media, cells (2×10^4) were seeded in triplicate in individual wells of 12-well tissue culture plates in RPMI-1640 with 10% FBS and cultured for the indicated number of days. Cells were trypsinized, stained with Trypan Blue (0.4%), and counted in a hemacytometer. […] Colonies were counted after 10 days of incubation. For studies assessing the effect of dihydrotestosterone (DHT) on cell growth, cells (2×10^4) were plated in 12-well plates in complete media. After a 24-hour attachment period, the medium was replaced with steroid-free medium [phenol red-free RPMI 1640 and 5% charcoal-stripped FBS (Sigma)] for 48 hours. The final concentration of testosterone in the steroid-reduced media was less than 5 pM. After 48 hours of steroid depletion, cells were re-fed with fresh steroid-reduced medium with or without the indicated concentrations of DHT and/or bicalutamide (10 μM), and total cell numbers were assessed 7 days later.

Sequence of Androgen Receptor (AR) (P10275 whole entry T878A): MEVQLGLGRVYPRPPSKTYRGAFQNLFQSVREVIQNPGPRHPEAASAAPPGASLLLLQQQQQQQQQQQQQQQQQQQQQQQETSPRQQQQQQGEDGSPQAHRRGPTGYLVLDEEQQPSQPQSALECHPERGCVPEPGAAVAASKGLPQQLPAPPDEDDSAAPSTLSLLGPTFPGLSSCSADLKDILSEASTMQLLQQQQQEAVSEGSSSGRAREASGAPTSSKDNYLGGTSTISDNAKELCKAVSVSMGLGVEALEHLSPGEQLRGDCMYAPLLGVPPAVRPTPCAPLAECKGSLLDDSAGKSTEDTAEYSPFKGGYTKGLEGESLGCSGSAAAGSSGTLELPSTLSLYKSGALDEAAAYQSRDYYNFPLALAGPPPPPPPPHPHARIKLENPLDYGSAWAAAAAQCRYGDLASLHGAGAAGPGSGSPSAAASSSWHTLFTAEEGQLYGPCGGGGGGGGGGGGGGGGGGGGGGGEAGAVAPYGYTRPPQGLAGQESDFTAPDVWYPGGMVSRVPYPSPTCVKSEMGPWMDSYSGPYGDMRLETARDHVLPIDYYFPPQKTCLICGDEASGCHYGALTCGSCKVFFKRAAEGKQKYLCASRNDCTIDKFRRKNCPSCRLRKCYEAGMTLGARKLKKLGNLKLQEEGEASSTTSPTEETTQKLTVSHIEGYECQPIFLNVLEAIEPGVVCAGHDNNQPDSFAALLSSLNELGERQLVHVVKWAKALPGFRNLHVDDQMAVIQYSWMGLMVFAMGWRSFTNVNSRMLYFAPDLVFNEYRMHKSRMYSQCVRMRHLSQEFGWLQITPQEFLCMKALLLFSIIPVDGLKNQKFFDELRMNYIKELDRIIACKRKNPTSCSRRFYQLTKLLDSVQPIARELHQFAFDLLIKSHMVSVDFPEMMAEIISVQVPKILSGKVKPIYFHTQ

For the molecule `C[C@]1(O)CC[C@H]2[C@@H]3CCC4=CC(=O)CCC4=C3C=C[C@@]21C` [R1881], the “activation of luciferase activity (MMTV-luc)” value on Androgen Receptor (AR) (LNCaP vector controls, R1881 10^−8 M) worked out at 20 fold. Further, at Androgen Receptor (AR) (ebp1 transfectants), the “AR activation (MMTV-luc)” value was “neither R1881 nor cyproterone acetate nor the combination thereof stimulated AR activation”.

With `C[C@]12CCC(=O)C[C@@H]1CC[C@@H]1[C@@H]2CC[C@]2(C)[C@@H](O)CC[C@@H]12` [DHT, dihydrotestosterone], the “stimulation of growth as compared to no DHT” value in the assay on LNCaP cells (Ebp1 transfectants) worked out at 35%; with LNCaP cells (LNCaP vector controls, maximal), 250%.
